Experimental data as given in patent US5157019A, “Serine protease inhibitors” (Monsanto Company, priority 1991, dated 1992).
Like-named read-outs stand apart in the source and are kept apart here. Ends that are not written are not given here.

Tests used:
Assay type in all cases: biochemical
HUMAN SPUTUM ELASTASE = target: T1, HUMAN SPUTUM ELASTASE (Homo sapiens, UniProt P08246); test: Elastase assay (MeO-Suc-Ala-Pro-Val-pNA); conditions: 200 μM peptide
T1 construct: HUMAN SPUTUM ELASTASE; purchased Elastin Products Company SE563; host or cells: human sputum (from the product name)
T1 sequence (P08246 30-267): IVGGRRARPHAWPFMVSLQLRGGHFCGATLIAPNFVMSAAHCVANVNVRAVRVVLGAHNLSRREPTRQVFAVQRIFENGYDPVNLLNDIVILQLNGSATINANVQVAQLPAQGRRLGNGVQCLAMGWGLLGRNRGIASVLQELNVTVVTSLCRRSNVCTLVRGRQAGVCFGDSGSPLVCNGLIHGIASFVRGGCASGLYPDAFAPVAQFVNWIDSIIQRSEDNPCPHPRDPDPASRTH
Protocol: Enzyme used is "HUMAN SPUTUM ELASTASE®" which is an enzyme which is the target protease for α1 antitrypsin from Elastin Products Company, Catalog No. SE563, lot 85071, 875 units/mg as determined by supplier with N-Suc-Ala-Ala-Ala-pNA; prepared at 0.2 mg/mL in 0.1M Tris·HCl, pH 8.8 at 37 degrees C. An amount of enzyme is used to give approximately 0.1 change in Absorbance/min; which in this assay was 1 μg.
The substrate is MeO-Suc-Ala-Pro-Val-pNA, Sigma Catalog No. M-4765. About 50 mg of the substrate is dissolved in 1 ml of 1-methyl-2-pyrrolidinone and diluted to 33 mls. with 0.1M Tris-HCl, pH 7.5, containing 0.5M NaCl, and 0.01 wt % sodium azide.
Peptide solutions are prepared at 500 μM, using 1.5% of the final volume of DMSO first and diluting with distilled water (DW) or 0.1M Tris.HCl, pH 8.8 at 37 degrees C. [formula]

Cathepsin G = target: T2, Cathepsin G (Homo sapiens, UniProt P08311); test: Cathepsin G assay (Suc-Ala-Ala-Pro-Phe-pNA, 410 nm); conditions: for inhibition at 100 µM / Cathepsin G % inhibition: 100 μM peptide (Tables VI, VIII); for inhibition at 200 µM / Cathepsin G Inhibition: 200 μM peptide (head of Table IX)
T2 construct: purchased Elastin Products Company (EPC) SG-45
T2 sequence (P08311 21-255): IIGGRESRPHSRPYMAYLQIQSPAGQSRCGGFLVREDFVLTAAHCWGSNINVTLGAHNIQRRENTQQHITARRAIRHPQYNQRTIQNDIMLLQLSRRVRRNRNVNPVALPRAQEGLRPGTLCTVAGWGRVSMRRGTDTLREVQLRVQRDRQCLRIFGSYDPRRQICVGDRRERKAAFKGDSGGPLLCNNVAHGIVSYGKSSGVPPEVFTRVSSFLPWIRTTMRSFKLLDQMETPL
Protocol: Reference: Elastin Products Company (EPC) technical data sheet, cathepsin G, No. SG-45.
Method: Spectrophotometric rate determination
A) Buffer; 0.1M Tris, pH 7.5 at 25° C.
B) Substrate; 60 mM Suc-Ala-Ala-Pro-Phe-pNA obtained from Sigma Chemical Company. Solution prepared by dissolving 50 mg substrate in 1.3 ml of 1-methyl-2-pyrrolidinone. Stored at 5° C.
C) Peptide Inhibitors; 200 μM HCl salt. Depending on peptide solubility, dissolved in buffer or DMSO and then buffer added for a final concentration of 10% DMSO.
D) Enzyme; Cathepsin G, EPC SG-45, lot 85117 used for all assays, 0.0077 mg protein per mg solid determined by supplier by Bradford method. Enzyme was dissolved in buffer at a concentration of approx. 5 mg/ml solid. Solution stored on ice, used within 2 hours.
Pipetted the following into semi-micro quartz cuvettes: 0.3 ml buffer, 0.15 ml peptide solution and 0.5 ml of substrate solution. Equilibrate for 5 min. at 25° C., then add 0.05 ml of enzyme solution and monitor the release of pNA spectrophotometrically at 410 nm for at least 3 minutes. The controls contain either 0.45 ml of buffer or 20% DMSO in buffer (for a final concentration of 10% DMSO).
The rate (O.D./min) is obtained as an average over 3 minutes. [formula]

Plasmin = Plasmin (Homo sapiens, UniProt P00747); test: Plasmin assay (S2251); conditions: 200 μM peptide
Protocol: Substrate H-D-Val-Leu-Lys-pNA·HCl (S2251, Kabi), 10 mM in deionized water; may be frozen for future use.
Buffer 50 mM Tris·HCl, pH 7.4 containing 0.01% Tween 80
Inhibitor 400 μM in deionized water
Enzyme Plasmin; 0.5 U/ml in buffer (Cat #P-4895, Sigma Chemical Co., St. Louis, Mo.)
Mix 220 μL buffer, 200 μL deionized water (control) or inhibitor solution and 40 μL substrate. Incubate for 2 min at 37° C. Transfer 230 μL to a microcuvette, add 40 μL of enzyme, mix, and measure rate spectrophotometrically at 405 nm for about 5 min. Inhibition (%) is calculated in the same manner as in previous assays.

Factor D = target: T3, Factor D (Homo sapiens, UniProt P00746); test: Factor D assay by inhibition of fluid phase Factor B activation
T3 construct: prepared from pooled human plasma; from tissue; host or cells: pooled human plasma
Protocol: Highly purified C3, C4, Factor D, Factor B, and C1s were prepared from pooled human plasma. Factors B and C4 were radiolabeled by periodate oxidation of sialic acid residues, followed by reduction with tritiated sodium borohydride. In a representative experiment, a solution of 1.2 mg of factor B in 1.8 ml of PBS was treated with 70 μl of 0.1M NaIO4. After 10 min incubation on ice, excess reagent was removed by filtration over "SEPHADEX®" which is a matrix for gel chromatography (1.0 cm×20 cm). To the protein pool was added 60 μl of NaB[^3 H]4 solution and incubated for 30 min on ice. Labeled protein was separated from excess reagent by desalting or dialysis. Human C4 was radiolabeled in the same manner. Radiolabeled proteins were stored at -70° C. in PBS. The specific radioactivity of ^3 H factor B was about 10,000 CPM/μg and that of ^3 H-C4 was 5,000 CPM/μg.
The effect of the peptides on Factor D-dependent cleavage of factor B was studied by incubating 3.5 μg of Factor B, 1.5 μg of C3(H2 O) and 0.2 μl of Factor D at 37° C. for 60 min in Mg-PBS containing different concentrations of inhibitor. Uncleaved Factor B and its fragments, Ba and Bb, were first separated by SDS-PAGE and analyzed as described above. The percent cleavage of the reaction was calculated as follows: [formula]
B=radioactivity (CPM) of uncleaved factor B
Bb=radioactivity (CPM) of fragment Bb
Ba=radioactivity (CPM) of fragment Ba
Electrophoresis was carried out under reducing conditions in the Laemmli system using slab gel of 8% polyacrylamide. The gels were stained and destained (Fairbanks et al. Biochemistry (1971) 10:2606).
The percent inhibition of the reaction was calculated according to the following relationship: [formula]
A: % cleavage without inhibitor
B: % cleavage with inhibitor
The concentration inducing 50% inhibition was obtained by plotting the percent inhibition on a probability graph (National Blank Book Co., No. 12-083) on the ordinate and the log of the inhibitor concentration on the abscissa. From this graph, a 50% inhibition concentration IC50 was obtained and this value was employed to express the activity.

[1] = Table X, μM concentration at which protease was inhibited 50%, read-out: IC50 D
[2] = Tables VI and VIII, % 50, read-out: Factor D, μM concentration listed for 50 % inhibition

Sequence of Plasmin (P00747 581-810 limits assumed): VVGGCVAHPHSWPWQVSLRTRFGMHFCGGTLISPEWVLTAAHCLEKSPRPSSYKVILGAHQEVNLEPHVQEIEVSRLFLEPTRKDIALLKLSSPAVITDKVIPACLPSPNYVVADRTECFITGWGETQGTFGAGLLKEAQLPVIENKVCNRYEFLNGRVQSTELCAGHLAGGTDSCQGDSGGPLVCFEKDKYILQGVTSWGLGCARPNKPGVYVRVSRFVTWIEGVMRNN
Sequence of Plasmin (P00747 97-580 partner limits assumed): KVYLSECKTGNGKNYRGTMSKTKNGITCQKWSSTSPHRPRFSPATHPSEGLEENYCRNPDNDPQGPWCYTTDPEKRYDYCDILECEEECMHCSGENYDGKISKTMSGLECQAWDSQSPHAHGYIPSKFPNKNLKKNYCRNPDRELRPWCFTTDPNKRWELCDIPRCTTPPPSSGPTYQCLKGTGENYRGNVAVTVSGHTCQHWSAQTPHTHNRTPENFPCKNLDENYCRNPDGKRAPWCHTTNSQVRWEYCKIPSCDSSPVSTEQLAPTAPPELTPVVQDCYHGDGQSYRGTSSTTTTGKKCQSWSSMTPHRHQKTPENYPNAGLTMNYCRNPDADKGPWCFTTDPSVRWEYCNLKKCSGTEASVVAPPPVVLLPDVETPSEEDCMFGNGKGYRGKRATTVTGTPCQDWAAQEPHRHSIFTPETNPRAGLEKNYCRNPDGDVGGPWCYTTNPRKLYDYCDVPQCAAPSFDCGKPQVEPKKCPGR
T3 sequence (P00746 26-253): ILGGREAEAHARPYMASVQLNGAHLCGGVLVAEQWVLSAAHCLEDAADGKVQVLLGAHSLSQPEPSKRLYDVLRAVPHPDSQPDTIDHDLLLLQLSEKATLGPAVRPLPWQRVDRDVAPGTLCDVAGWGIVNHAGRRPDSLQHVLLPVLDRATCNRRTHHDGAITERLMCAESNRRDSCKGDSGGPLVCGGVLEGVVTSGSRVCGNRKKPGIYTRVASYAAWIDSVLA

CC[C@H](C)[C@H](NC(=O)[C@H](CC(C)C)NC(=O)[C@H](Cc1ccccc1)NC(=O)[C@@H](NC(=O)[C@H](Cc1ccccc1)NC(=O)[C@@H]1CCCN1C(=O)[C@H](CCCCN)NC(=O)[C@H](CC(N)=O)NC(=O)[C@H](Cc1ccccc1)NC(=O)[C@H](CCCCN)NC(=O)[C@@H](NC(=O)[C@H](CCC(=O)O)NC(=O)[C@@H]1CCCN1C(=O)[C@@H]1CCCN1)C(C)C)C(C)C)C(=O)O [Peptide 1] was tested, and the “Elastase Inhibition” value (HUMAN SPUTUM ELASTASE) was “no inhibitory activity”, the inhibition at 200 µM (HUMAN SPUTUM ELASTASE) was 0% and the inhibition at 100 µM (Cathepsin G) was 0%. It also gave an inhibition at 200 µM (Cathepsin G) of 0%, an inhibition at 200 µM (Plasmin) of 37% and an inhibition at 200 µM (Factor D; 200 μM peptide) of 0%.
With “AGRSLNPNRVTFKANRPFLVFIREVPLNTIIFLGRVANP [Peptide 27]” the inhibition at 200 µM (HUMAN SPUTUM ELASTASE) was 0%, the inhibition at 200 µM (Cathepsin G) was 52% and the IC50 (Factor D; [1]) was less than 25 µM.
Molecule IVRFNRPFLLII [Peptide 3] has an inhibition at 200 µM (HUMAN SPUTUM ELASTASE) of 0%, an inhibition at 100 µM (Cathepsin G) of 32% and an inhibition at 200 µM (Cathepsin G) of 32%. The inhibition at 200 µM (Plasmin) was 33% and the IC50 (Factor D; [2]) was 111 µM.
In the case of “IVRFNRPFLLIIVPTDTQNIFFLSKVTNPSKPR [Peptide 22]”, the “Elastase Inhibition” value (HUMAN SPUTUM ELASTASE) was 0%, the “Cathepsin G % inhibition” value (Cathepsin G) was 46% and the “Cathepsin G Inhibition” value (Cathepsin G) was 46%. The Plasmin % inhibition (Plasmin) was 56% and the IC50 (Factor D; [2]) was 4 µM.
For PNRVTFKANRPFLVFI [Peptide 2], the inhibition at 200 µM (HUMAN SPUTUM ELASTASE) was 0%, the inhibition at 100 µM (Cathepsin G) was 13% and the inhibition at 200 µM (Cathepsin G) was 13%. The inhibition at 200 µM (Plasmin) was 33% and the IC50 (Factor D; [2]) was 53 µM.
For “RVTFKANRPFLVFIREVPLNTIIFLGRVANP [Peptide 21]”, the inhibition at 200 µM (HUMAN SPUTUM ELASTASE) was 0%, the inhibition at 100 µM (Cathepsin G) was 38% and the inhibition at 200 µM (Cathepsin G) was 38%. For the same molecule, the inhibition at 200 µM (Plasmin) was 53%, the IC50 (Factor D; [1]) was less than 8 µM and the IC50 (Factor D; [2]) was less than 8 µM.
With “VKFNKPFVFLLIEQNTKSPLFLGKVVNPTQK [Peptide 20]” the “Elastase Inhibition” value (HUMAN SPUTUM ELASTASE) was 0%, the “Cathepsin G % inhibition” value (Cathepsin G) was 0% and the “Cathepsin G Inhibition” value (Cathepsin G) was 0%. The Plasmin % inhibition (Plasmin) was 43% and the IC50 (Factor D; [2]) was 16 µM.
